As usually defined, the IC50 is the concentration that gives 50% inhibition.

A value given as a limit tells only on which side of the number the result lay.

T1 sequence (Q9Y5Y9 whole entry): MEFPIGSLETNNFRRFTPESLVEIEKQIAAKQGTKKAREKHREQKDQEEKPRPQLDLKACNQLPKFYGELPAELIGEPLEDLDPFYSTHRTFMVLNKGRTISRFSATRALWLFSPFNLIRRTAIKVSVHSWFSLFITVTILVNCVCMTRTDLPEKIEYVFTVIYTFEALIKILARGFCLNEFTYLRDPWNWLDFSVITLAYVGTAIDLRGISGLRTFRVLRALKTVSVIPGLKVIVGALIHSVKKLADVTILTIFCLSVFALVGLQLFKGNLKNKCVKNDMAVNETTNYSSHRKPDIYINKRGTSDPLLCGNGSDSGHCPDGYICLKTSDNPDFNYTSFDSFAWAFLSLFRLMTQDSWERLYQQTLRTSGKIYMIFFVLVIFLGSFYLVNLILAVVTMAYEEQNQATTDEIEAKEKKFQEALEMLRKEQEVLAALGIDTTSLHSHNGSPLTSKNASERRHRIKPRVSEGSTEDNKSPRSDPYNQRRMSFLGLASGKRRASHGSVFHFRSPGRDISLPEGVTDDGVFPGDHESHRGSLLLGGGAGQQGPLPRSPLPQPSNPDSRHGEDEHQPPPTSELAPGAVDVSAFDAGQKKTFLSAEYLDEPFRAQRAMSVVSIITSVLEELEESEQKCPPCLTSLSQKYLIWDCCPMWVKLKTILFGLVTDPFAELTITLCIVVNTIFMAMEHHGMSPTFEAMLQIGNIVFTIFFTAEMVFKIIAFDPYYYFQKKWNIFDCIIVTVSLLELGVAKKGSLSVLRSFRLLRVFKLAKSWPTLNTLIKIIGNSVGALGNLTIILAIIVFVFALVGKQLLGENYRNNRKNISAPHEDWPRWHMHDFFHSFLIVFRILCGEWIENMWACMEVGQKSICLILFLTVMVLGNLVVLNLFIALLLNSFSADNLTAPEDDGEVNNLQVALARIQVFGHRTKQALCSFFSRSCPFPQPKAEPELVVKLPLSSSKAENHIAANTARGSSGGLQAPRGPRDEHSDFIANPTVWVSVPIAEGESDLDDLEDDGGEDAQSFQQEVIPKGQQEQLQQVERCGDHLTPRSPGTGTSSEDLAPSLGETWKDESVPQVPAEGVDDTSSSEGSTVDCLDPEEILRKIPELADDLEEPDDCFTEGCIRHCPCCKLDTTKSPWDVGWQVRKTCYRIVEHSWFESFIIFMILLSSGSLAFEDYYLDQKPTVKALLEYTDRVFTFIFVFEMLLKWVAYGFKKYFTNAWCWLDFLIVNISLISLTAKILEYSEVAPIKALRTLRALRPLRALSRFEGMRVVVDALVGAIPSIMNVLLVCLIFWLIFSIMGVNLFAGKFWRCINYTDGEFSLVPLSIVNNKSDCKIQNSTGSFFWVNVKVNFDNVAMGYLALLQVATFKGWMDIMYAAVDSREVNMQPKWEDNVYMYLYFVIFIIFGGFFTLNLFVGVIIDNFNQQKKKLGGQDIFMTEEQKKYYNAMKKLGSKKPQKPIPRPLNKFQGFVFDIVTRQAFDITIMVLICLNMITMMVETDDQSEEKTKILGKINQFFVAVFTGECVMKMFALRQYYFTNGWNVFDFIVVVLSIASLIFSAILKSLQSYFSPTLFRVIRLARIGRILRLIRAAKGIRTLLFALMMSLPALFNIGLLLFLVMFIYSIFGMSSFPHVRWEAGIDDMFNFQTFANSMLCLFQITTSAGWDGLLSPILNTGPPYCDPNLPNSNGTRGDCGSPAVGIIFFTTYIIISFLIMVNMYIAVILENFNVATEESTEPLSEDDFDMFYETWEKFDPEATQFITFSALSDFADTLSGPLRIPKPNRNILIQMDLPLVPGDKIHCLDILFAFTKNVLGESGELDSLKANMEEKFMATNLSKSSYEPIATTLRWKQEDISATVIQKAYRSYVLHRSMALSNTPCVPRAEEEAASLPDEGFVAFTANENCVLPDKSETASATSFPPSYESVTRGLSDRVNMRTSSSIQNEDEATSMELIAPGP

The experiment addresses T1, human Nav1.8 (hNav1.8) ion channel (Homo sapiens, UniProt Q9Y5Y9).
T1 construct: expressed in transfected cells; host or cells: HEK293
Kind of experiment: Nav1.8 channel inhibition, estimated IC50 (one or more of: fluorescence inhibition assay, PatchXpress, IonFlux HT automated patch clamp). It counts as cell-based. The conditions noted are these: HEK293 cells stably expressing hNav1.8; method used per compound not stated; read-out: Activity range (estimated IC50). The method, boiled down:
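HEK293 cells stably expressing hNav1.8 with β1/β2 subunits; IC50 from the fluorescence assay and/or automated whole-cell patch clamp (PatchXpress, IonFlux HT). Fluorescence: ANG-2 Na dye, 5 min compound preincubation (0.02–5 μM, 1% DMSO) with 30 μM ouabain, stimulation by 10 μM deltamethrin, peak signal fit logistically. PatchXpress: holding potential reset to Vhalf, inhibition normalized to control/washout currents.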
Turning to `Cc1cc(F)ccc1Oc1ncc(C(F)(F)F)cc1C(=O)Nc1cccc(S(C)(=O)=O)c1` [Example 113, 2-(4-fluoro-2-methyl-phenoxy)-N-(3-methylsulfonylphenyl)-5-(trifluoromethyl)pyridine-3-carboxamide], the half-maximal inhibitory concentration (IC50) was 500 to 1000 nM.
Take `CN=S(C)(=O)c1cccc(NC(=O)c2cc(C(F)(F)F)cnc2Oc2ccc(F)cc2C)c1` (stereo not shown) [Example 114, N-[3-(N,S-dimethylsulfonimidoyl)phenyl]-2-(4-fluoro-2-methyl-phenoxy)-5-(trifluoromethyl)pyridine-3-carboxamide]: the IC50 is less than 500 nM.
For the compound `Cc1cc(F)ccc1Oc1ncc(C(F)(F)F)cc1C(=O)Nc1cccc(S(C)(=N)=O)c1` (stereo not shown) [Example 115, 2-(4-fluoro-2-methyl-phenoxy)-N-[3-(methylsulfonimidoyl)phenyl]-5-(trifluoromethyl)pyridine-3-carboxamide], the half-inhibitory concentration (IC50) was less than 500 nM.
Turning to `Cc1cc(F)ccc1Oc1ncc(C(F)(F)F)cc1C(=O)Nc1ccnnc1` [Example 116, 2-(4-fluoro-2-methyl-phenoxy)-N-pyridazin-4-yl-5-(trifluoromethyl)pyridine-3-carboxamide], the IC50 is greater than 1000 nM.
In the case of `COc1cc(F)ccc1Oc1nc(C)ccc1C(=O)Nc1cccc(S(C)(=O)=O)c1` [Example 117, 2-(4-fluoro-2-methoxy-phenoxy)-6-methyl-N-(3-methylsulfonylphenyl)pyridine-3-carboxamide], the IC50 is greater than 1000 nM.
With `COc1cc(F)ccc1Oc1nc(C)c(C)cc1C(=O)Nc1cccc(S(C)(=O)=O)c1` [Example 118, 2-(4-fluoro-2-methoxy-phenoxy)-5,6-dimethyl-N-(3-methylsulfonylphenyl)pyridine-3-carboxamide], the 50% inhibitory concentration (IC50) was less than 500 nM.
To `COc1cc(F)ccc1Oc1ncc(Cl)cc1C(=O)Nc1cccc(S(C)(=O)=O)c1` [Example 119, 5-chloro-2-(4-fluoro-2-methoxy-phenoxy)-N-(3-methylsulfonylphenyl)pyridine-3-carboxamide] belongs 500 to 1000 nM; to `COc1cc(F)ccc1Oc1nc2c(cc1C(=O)Nc1cccc(S(C)(=O)=O)c1)CCC2` [Example 120, 2-(4-fluoro-2-methoxy-phenoxy)-N-(3-methylsulfonylphenyl)-6,7-dihydro-5H-cyclopenta[b]pyridine-3-carboxamide], less than 500 nM.
To `C[S+]([O-])c1cccc(NC(=O)c2cc(C(F)(F)F)cnc2Oc2ccc(OC(F)(F)F)cc2)c1` (stereo not shown) [Example 121, N-(3-methylsulfinylphenyl)-2-[4-(trifluoromethoxy)phenoxy]-5-(trifluoromethyl)pyridine-3-carboxamide] belongs less than 500 nM; to `NS(=O)(=O)c1cccc(NC(=O)c2cc(C(F)(F)F)cnc2Oc2ccc(OC(F)(F)F)cc2)c1` [Example 122, N-(3-sulfamoylphenyl)-2-[4-(trifluoromethoxy)phenoxy]-5-(trifluoromethyl)pyridine-3-carboxamide], less than 500 nM.
To `CS(=N)(=O)c1cccc(NC(=O)c2cc(C(F)(F)F)cnc2Oc2ccc(OC(F)(F)F)cc2)c1` (stereo not shown) [Example 123, N-[3-(methylsulfonimidoyl)phenyl]-2-[4-(trifluoromethoxy)phenoxy]-5-(trifluoromethyl)pyridine-3-carboxamide] belongs less than 500 nM; to `CN=S(C)(=O)c1cccc(NC(=O)c2cc(C(F)(F)F)cnc2Oc2ccc(OC(F)(F)F)cc2)c1` (stereo not shown) [Example 124, N-[3-(N,S-dimethylsulfonimidoyl)phenyl]-2-[4-(trifluoromethoxy)phenoxy]-5-(trifluoromethyl)pyridine-3-carboxamide], less than 500 nM.
On to `CCS(=O)(=O)c1cccc(NC(=O)c2cc(C(F)(F)F)cnc2Oc2ccc(OC(F)(F)F)cc2)c1` [Example 125, N-(3-ethylsulfonylphenyl)-2-[4-(trifluoromethoxy)phenoxy]-5-(trifluoromethyl)pyridine-3-carboxamide], for which the half-inhibitory concentration (IC50) is less than 500 nM.
In the case of `O=C(Nc1cccnc1)c1cc(C(F)(F)F)cnc1Oc1ccc(OC(F)(F)F)cc1` [Example 126, N-(3-pyridyl)-2-[4-(trifluoromethoxy)phenoxy]-5-(trifluoromethyl)pyridine-3-carboxamide], the half-inhibitory concentration (IC50) is 500 to 1000 nM.
As for `O=C(Nc1ccncc1)c1cc(C(F)(F)F)cnc1Oc1ccc(OC(F)(F)F)cc1` [Example 127, N-(4-pyridyl)-2-[4-(trifluoromethoxy)phenoxy]-5-(trifluoromethyl)pyridine-3-carboxamide], the figure is less than 500 nM.
With `O=C(Nc1ccnnc1)c1cc(C(F)(F)F)cnc1Oc1ccc(OC(F)(F)F)cc1` [Example 128, N-pyridazin-4-yl-2-[4-(trifluoromethoxy)phenoxy]-5-(trifluoromethyl)pyridine-3-carboxamide], the IC50 is less than 500 nM.
Turning to `CS(C)(=O)=Nc1cccc(NC(=O)c2cc(C(F)(F)F)cnc2Oc2ccc(OC(F)(F)F)cc2)c1` [Example 129, N-[3-[[dimethyl(oxo)-λ^6-sulfanylidene]amino]phenyl]-2-[4-(trifluoromethoxy)phenoxy]-5-(trifluoromethyl)pyridine-3-carboxamide], the IC50 was greater than 1000 nM.
For the compound `O=C(Nc1ccc[n+]([O-])c1)c1cc(C(F)(F)F)cnc1Oc1ccc(OC(F)(F)F)cc1` [Example 132, N-(1-oxidopyridin-1-ium-3-yl)-2-[4-(trifluoromethoxy)phenoxy]-5-(trifluoromethyl)pyridine-3-carboxamide], the IC50 is less than 500 nM.
As for `Cc1cc(F)ccc1Oc1ncc(C(F)(F)F)cc1C(=O)Nc1ccc[n+]([O-])c1` [Example 133, 2-(4-fluoro-2-methyl-phenoxy)-N-(1-oxidopyridin-1-ium-3-yl)-5-(trifluoromethyl)pyridine-3-carboxamide], the figure is greater than 1000 nM.
As for `COc1cc(F)ccc1Oc1ncc(C(F)(F)F)cc1C(=O)Nc1ccc[n+]([O-])c1` [Example 134, 2-(4-fluoro-2-methoxy-phenoxy)-N-(1-oxidopyridin-1-ium-3-yl)-5-(trifluoromethyl)pyridine-3-carboxamide], the figure is greater than 1000 nM; as for `O=C(Nc1ccc[n+]([O-])c1)c1cc(C(F)(F)F)cnc1Oc1ccc(F)cc1F` [Example 135, 2-(2,4-difluorophenoxy)-N-(1-oxidopyridin-1-ium-3-yl)-5-(trifluoromethyl)pyridine-3-carboxamide], greater than 1000 nM; as for `O=C(Nc1ccc[n+]([O-])c1)c1cc(C(F)(F)F)cnc1Oc1ccc(OC(F)F)cc1` [Example 136, 3-(2-(4-(difluoromethoxy)phenoxy)-5-(trifluoromethyl)nicotinamido)pyridine 1-oxide], less than 500 nM.
Regarding `COc1ccc(Oc2ncc(C(F)(F)F)cc2C(=O)Nc2ccc[n+]([O-])c2)c(OC)c1` [Example 137, 3-(2-(2,4-dimethoxyphenoxy)-5-(trifluoromethyl)nicotinamido)pyridine 1-oxide], the 50% inhibitory concentration (IC50) was less than 500 nM.
To `COc1ccc(Oc2ncc(C(F)(F)F)cc2C(=O)Nc2ccc[n+]([O-])c2)c(Cl)c1` [Example 138, 3-(2-(2-chloro-4-methoxyphenoxy)-5-(trifluoromethyl)nicotinamido)pyridine 1-oxide] belongs less than 500 nM.
As for `O=C(Nc1cc[n+]([O-])cc1)c1cc(C(F)(F)F)cnc1Oc1ccc(OC(F)(F)F)cc1` [Example 141, N-(1-oxidopyridin-1-ium-4-yl)-2-[4-(trifluoromethoxy)phenoxy]-5-(trifluoromethyl)pyridine-3-carboxamide], the figure is less than 500 nM.

Source of the values: patent publication US12234221B2, “Pyridine carboxamide compounds for inhibiting NAV1.8” (Lieber Institute, Inc., priority 2018, dated 2025).
